Measured values: patent publication US20130344008A1, “NONCARIOUS MATERIAL AND ANTICARIOUS AGENT CONTAINING RARE SUGAR” (priority 2006, published 2013)

What was measured:
[1] = test system: S. mutans strain MT 8148 (JCM5175); assay: Example 4: cariostatic test with D-psicose and catechin, pH of culture in PRB broth; type: cell-based, Streptococcus mutans; conditions: for pH: PRB broth, 20 hours later
Method: A cariostatic test with D-psicose was carried out. Additionally, the effect of catechins added was also examined. D-Psicose was supplied from the Rare Sugar Research Center, the National University Corporation Kagawa University. As the catechin, Polyphenon 70A of Mitsui Norin Co., Ltd. was used. The S. mutans strain MT 8148 (JCM5175) was plated in a Brain Heart Infusion broth supplemented with agar, for culturing at 37° C. for 48 hours. Further, the resulting liquid culture was inoculated in a fresh Brain Heart Infusion broth, for culturing at 37° C. for 24 hours. The liquid preculture was inoculated in a phenol red broth (PRB broth) containing sugars and catechins at the following concentrations for culturing at 37° C.; 20 hours later, the pH was measured. As a control, sucrose was used.

[2] = test system: S. mutans strain MT 8148 (JCM5175); assay: Example 2: bacterial growth (OD 660 nm) and pH of S. mutans culture in phenol red broth with 1% test substance; type: cell-based, Streptococcus mutans; conditions: PRB broth, 37° C., 48 hours later; for OD: bacterial growth, absorbance at 660 nm
Method: D-Psicose and L-psicose were used to assay the actions thereof against S. mutans. D-Psicose and L-psicose were supplied from the Rare Sugar Research Center, the National University Corporation Kagawa University. The S. mutans strain MT 8148 (JCM5175) was plated in a Brain Heart Infusion broth supplemented with agar for culturing at 37° C. for 48 hours. The liquid culture was inoculated in a fresh Brain Heart Infusion broth, for culturing at 37° C. for 24 hours. The liquid culture was inoculated in a phenol red broth (PRB broth) containing a test substance at 1%, for culturing at 37° C.; the bacterial growth (absorbance at 660 nm: OD) and the pH were assayed 48 hours later. Asa control, glucose, fructose, sucrose and Xylitol were used. After culturing for a given period of time, additionally, the optical density of apart of the liquid culture was measured with an absorptiometer (OD 660 nm).

[3] = test system: S. mutans strain JCM5075; assay: Example 1: optical density and pH of S. mutans JCM5075 cultures in BHI broth with rare sugars, with or without sucrose; type: cell-based, Streptococcus mutans; conditions: for Optical density (OD) 12 hours later: OD600; for pH change 24 hours later (in words): 1% sucrose, or 10% Xylitol+1% sucrose, or 10% fructose+1% sucrose
From the text: S. mutans strains characteristically form insoluble glucan on addition of sucrose, to generate acids and reduce the pH of the culture medium, which is considered to cause decalcification of teeth on dental surface to form decayed teeth (the reason why the strains are designated bacteria causing decayed teeth). JCM 5075 of S. mutans strains and the Brain Heart Infusion (BHI) broth were used to assay the optical density (the increase of the number of the bacterial cells) and the pH change in individual rare sugar solutions with or without sucrose added. As the rare sugars, there were used D-fructose, L-fructose, D-sorbose, L-sorbose, D-psicose, L-psicose, D-tagatose and L-tagatose. The rare sugars used were supplied from the Rare Sugar Research Center, the National University Corporation Kagawa University.
The strain JCM5075 thawed from −80° C. stock was cultured for 48 hours, and was adjusted to OD 0.3. 100 μl of the resulting culture was added to each 2-ml portion of the BHI broths under individual conditions, to assay the optical density and the pH 24 hours later (observation with naked eyes and absorbance: OD600).
After collecting a part of the liquid culture and centrifuging the culture, the pH of the resulting supernatant was measured with a pH meter. The results are shown in Table 2 (0, 6, 8, 12 and 24 hours after the addition of the bacteria to the BHI broth) and FIG. 3.

[4] = test system: S. mutans strain (JCM5075); assay: Example 3: pH of S. mutans culture in BHI broth with test substance after 48-hour culturing; type: cell-based, Streptococcus mutans; conditions: BHI broth, after 48-hour culturing
Method: Allitol and D-sorbose were used to assay the actions thereof against S. mutans. Allitol and D-sorbose were supplied from the Rare Sugar Research Center, the National University Corporation Kagawa University. The S. mutans strain (JCM5075) was plated in a Brain Heart Infusion broth containing a 10% test substance, to measure the pH of the liquid culture after 48-hour culturing. As a control, 1% sucrose and 10% Xylitol were used.

[5] = test system: caries; conditions: cited from earlier work
[6] = test system: S. mutans strain JCM5075; assay: Reference Example: formation of insoluble glucan with S. mutans, naked-eye observation; type: cell-based, Streptococcus mutans; conditions: sucrose added, BHI broth, anaerobic conditions, FIG. 1
Method: S. mutans strains characteristically form insoluble glucan on addition of sucrose, to reduce the pH of the culture medium, which is considered to cause decalcification of dental surface to form decayed teeth (the reason why the strains are designated bacteria causing decayed teeth). The S. mutans strain JCM5075 was plated in a Brain Heart Infusion (BHI) broth, for culturing under anaerobic conditions, to visually determine the bacterial growth (potency for forming insoluble glucan: optical density) with naked eyes.

[7] = 5% test substance + 1% sucrose, BHI broth
[8] = 5% test substance, no sucrose, BHI broth
[9] = 10% test substance + 1% sucrose, BHI broth
[10] = 10% test substance, no sucrose, BHI broth

Compound | pH [2] | OD [2] | pH 0 hour later [3, 7] | pH 6 hours later [3, 7] | pH 8 hours later [3, 7] | pH 12 hours later [3, 7] | pH 24 hours later [3, 7] | pH 0 hour later [3, 8] | pH 6 hours later [3, 8] | pH 8 hours later [3, 8] | pH 12 hours later [3, 8] | pH 24 hours later [3, 8] | pH 0 hour later [3, 9] | pH 6 hours later [3, 9] | pH 8 hours later [3, 9] | pH 12 hours later [3, 9] | pH 24 hours later [3, 9] | Optical density (OD) 12 hours later ([3]; 10% test substance, BHI broth) | pH 0 hour later [3, 10] | pH 6 hours later [3, 10] | other results
O=C(CO)[C@H](O)[C@H](O)[C@H](O)CO [D-psicose] | 5.9 | 0.02 | 7.4 | 7.3 | 7.2 | 7.2 | 6.4 | 7.4 | 7.3 | 7.2 | 7.2 | 7.0 | 7.3 | 7.2 | 7.2 | 7.2 | 7.1 | 0.158 | 7.3 | 7.2 | pH ([1]; 3.3% test substance + 0.25% sucrose): 4.4; pH ([1]; 5.0% test substance + 0.25% sucrose): 5.5; action of suppressing the pH reduction in a culture medium with addition of sucrose ([1]; D-psicose at a concentration of 5%, 0.25% sucrose): exerted an action of suppressing the pH reduction; pH 8 hours later [3, 10]: 7.2; pH 12 hours later [3, 10]: 7.2; pH 24 hours later [3, 10]: 7.2; suppression of the pH reduction ([3]; 24 hours later, also with 1% sucrose addition, FIG. 3): most highly suppressed the pH reduction; suppression of OD increase compared with no addition ([3]; BHI broth, FIG. 2 / Table 1): suppression of OD increase was observed
OC[C@@H](O)[C@H](O)[C@@H](O)CO [Xylitol, reference compound] | – | – | 7.3 | 7.2 | 7.2 | 7.1 | 4.9 | 7.3 | 7.2 | 7.2 | 7.2 | 6.4 | 7.3 | 7.2 | 7.2 | 7.2 | 5.1 | 0.046 | 7.4 | 7.2 | pH change 24 hours later (in words) ([3]; FIG. 3): highly inclined to acidity; pH 8 hours later [3, 10]: 7.2; pH 12 hours later [3, 10]: 7.2; pH 24 hours later [3, 10]: 6.5; pH ([4]; 10% test substance): 6.0
Oc1cc(O)c2c(c1)O[C@H](c1cc(O)c(O)c(O)c1)[C@@H](O)C2 [gallocatechin] | – | – | – | – | – | – | – | – | – | – | – | – | – | – | – | – | – | – | – | – | effective concentration against caries in the test system [5]: 125 µg/mL
OC[C@H]1O[C@@](CO)(O[C@H]2O[C@H](CO)[C@@H](O)[C@H](O)[C@H]2O)[C@@H](O)[C@@H]1O [sucrose, reference compound] | 3.9 | 0.14 | – | – | – | – | – | – | – | – | – | – | – | – | – | – | – | – | – | – | formation of insoluble glucan observed with naked eyes [6]: formed insoluble glucan; pH ([1]; 0.25% sucrose alone, 37° C.): 4.5; pH 0 hour later ([3]; 1% sucrose alone, BHI broth): 7.4; pH 6 hours later ([3]; 1% sucrose alone, BHI broth): 7.2; pH 8 hours later ([3]; 1% sucrose alone, BHI broth): 7.2; pH 12 hours later ([3]; 1% sucrose alone, BHI broth): 6.7; pH 24 hours later ([3]; 1% sucrose alone, BHI broth): 4.7; pH change 24 hours later (in words) ([3]; FIG. 3): highly inclined to acidity; Optical density (OD) 12 hours later ([3]; 1% test substance, BHI broth): 0.060; precipitation of bacterial masses (insoluble glucan) under observation with naked eyes ([3]; addition of 1% sucrose, addition of 10% D-fructose, 24 hours later): caused the precipitation of bacterial masses (insoluble glucan); pH ([4]; 1% sucrose (control)): 4.0
